Counter-ions that a name gives are not always drawn.
Key:
DNA-PK = DNA-PK (Homo sapiens (Human), UniProt P78527); assay: DNA-PK Enzyme-Linked Immunosorbent Assay (phosphorylation of GST-p53 (1-101) peptide); type: biochemical; conditions: ELISA
Outline: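 ELISA with plate-bound GST-p53 (1-101) phosphorylated by DNA-PK (0.1 μg/mL final) with 20 μM ATP for 1 h at 25 °C. Compounds tested over 10 3-fold doses from 100 nM top final. Phospho-p53 Ser15 detected by antibody, HRP and TMB, absorbance at 450 nm.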

ATM = ATM (Homo sapiens (Human), UniProt Q13315); assay: ATM in Cell Western Assay (pKAP1 in etoposide-treated MCF-7 cells); type: cell-based
Sequence of ATM (Q13315 whole entry): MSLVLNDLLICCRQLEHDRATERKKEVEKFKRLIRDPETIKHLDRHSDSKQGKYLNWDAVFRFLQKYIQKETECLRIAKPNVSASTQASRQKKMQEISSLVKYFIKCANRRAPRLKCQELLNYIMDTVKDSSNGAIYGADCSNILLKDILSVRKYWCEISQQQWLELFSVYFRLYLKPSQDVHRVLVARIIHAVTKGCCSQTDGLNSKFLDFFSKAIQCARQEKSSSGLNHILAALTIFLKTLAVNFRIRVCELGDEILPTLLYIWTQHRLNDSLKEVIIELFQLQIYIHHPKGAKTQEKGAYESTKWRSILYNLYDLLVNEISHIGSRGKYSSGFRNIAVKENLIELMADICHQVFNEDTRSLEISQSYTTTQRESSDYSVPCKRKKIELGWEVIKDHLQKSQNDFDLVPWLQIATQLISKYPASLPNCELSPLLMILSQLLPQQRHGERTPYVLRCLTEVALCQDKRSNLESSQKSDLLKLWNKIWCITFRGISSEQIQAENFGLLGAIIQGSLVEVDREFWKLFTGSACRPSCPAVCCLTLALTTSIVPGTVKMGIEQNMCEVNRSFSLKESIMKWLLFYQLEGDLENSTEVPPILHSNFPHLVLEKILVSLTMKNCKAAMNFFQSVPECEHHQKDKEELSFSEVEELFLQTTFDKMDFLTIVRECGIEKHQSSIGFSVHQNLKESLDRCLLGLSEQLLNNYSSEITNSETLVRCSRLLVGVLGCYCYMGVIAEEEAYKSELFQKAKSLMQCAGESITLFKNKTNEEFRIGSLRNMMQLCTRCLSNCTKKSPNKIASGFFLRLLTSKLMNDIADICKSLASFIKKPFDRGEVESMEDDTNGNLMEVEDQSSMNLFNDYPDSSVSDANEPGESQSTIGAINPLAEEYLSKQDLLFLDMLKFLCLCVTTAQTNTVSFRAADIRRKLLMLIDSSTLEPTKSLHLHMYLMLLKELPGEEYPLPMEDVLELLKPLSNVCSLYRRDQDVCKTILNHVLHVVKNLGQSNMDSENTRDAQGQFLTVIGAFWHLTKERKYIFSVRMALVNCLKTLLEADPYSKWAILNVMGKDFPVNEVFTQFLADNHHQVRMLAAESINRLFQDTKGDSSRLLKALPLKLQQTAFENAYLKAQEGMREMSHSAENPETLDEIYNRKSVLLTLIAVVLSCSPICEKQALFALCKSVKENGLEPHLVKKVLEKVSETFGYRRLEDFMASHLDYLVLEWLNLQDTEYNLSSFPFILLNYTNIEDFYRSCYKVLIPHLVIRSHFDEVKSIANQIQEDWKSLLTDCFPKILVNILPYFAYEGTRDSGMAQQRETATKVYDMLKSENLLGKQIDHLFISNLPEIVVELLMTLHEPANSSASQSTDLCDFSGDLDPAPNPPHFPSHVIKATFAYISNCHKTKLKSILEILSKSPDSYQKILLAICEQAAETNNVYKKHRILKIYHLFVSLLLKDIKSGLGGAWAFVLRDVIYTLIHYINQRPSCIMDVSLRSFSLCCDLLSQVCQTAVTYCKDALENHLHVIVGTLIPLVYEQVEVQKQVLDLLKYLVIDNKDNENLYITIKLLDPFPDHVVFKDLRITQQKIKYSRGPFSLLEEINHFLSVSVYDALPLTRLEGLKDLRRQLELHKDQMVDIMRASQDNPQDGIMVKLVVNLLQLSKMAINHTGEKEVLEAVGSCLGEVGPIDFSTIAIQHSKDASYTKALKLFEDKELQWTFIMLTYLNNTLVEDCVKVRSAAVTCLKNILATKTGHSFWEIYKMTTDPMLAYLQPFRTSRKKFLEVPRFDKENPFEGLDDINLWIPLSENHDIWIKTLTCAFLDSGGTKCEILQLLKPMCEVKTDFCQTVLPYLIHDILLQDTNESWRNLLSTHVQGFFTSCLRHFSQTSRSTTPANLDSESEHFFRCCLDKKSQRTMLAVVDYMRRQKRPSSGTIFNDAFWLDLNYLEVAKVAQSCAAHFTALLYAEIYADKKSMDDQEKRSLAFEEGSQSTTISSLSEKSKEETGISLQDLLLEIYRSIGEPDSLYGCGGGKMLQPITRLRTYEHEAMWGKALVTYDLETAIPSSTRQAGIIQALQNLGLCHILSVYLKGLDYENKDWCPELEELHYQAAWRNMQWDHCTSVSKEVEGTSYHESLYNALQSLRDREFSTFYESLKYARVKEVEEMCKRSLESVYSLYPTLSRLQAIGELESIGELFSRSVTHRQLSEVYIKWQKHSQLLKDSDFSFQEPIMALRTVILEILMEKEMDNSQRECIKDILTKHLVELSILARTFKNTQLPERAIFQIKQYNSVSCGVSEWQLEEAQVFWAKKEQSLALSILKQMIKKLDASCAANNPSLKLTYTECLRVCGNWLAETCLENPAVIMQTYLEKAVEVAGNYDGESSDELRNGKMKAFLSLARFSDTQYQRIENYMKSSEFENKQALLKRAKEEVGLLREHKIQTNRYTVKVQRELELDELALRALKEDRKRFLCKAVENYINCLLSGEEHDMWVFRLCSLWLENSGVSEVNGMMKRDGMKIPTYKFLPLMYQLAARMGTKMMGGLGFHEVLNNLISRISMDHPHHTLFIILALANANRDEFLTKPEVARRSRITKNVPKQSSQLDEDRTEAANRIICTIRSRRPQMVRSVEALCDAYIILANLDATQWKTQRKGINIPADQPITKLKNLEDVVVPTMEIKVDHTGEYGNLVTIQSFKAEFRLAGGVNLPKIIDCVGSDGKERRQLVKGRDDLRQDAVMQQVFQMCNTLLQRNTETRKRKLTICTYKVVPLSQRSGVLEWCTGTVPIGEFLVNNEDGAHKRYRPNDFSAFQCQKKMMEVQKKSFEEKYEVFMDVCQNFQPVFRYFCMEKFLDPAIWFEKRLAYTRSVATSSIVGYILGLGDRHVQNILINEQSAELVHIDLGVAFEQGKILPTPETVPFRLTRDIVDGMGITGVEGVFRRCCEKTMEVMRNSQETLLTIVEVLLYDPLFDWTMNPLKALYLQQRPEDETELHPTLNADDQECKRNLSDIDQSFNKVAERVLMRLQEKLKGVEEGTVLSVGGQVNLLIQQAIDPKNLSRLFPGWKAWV
Outline: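 Cells received compounds in a 10-dose, 3-fold series from a 1 μM final top concentration, then 100 μM etoposide, for 1 hr at 37° C. They were then fixed with paraformaldehyde and permeabilized with 0.1% Triton X-100. After immunostaining, plates were scanned on an infrared imager.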

[1] = pKAP1 in etoposide-treated MCF-7 cells
[2] = MCF-7 cells, etoposide 100 μM, 1 hr, pKAP1 readout

SMILES	IC50 (DNA-PK; 20 μM ATP)	IC50 (ATM; [1])	IC50 (DNA-PK; ATP 20 μM)	IC50 (ATM; [2])
CN1C(=O)C2(CC2)c2c1cnc1ccc(-c3cnc(OCCC4CCCCN4C)c(NS(=O)(=O)C4CC4)c3)cc21 (stereo not shown) [Example 80, N-(5-(3′-Methyl-2′-oxo-2′,3′-dihydrospiro [cyclopropane-1,1′-pyrrolo[2,3-c]quinolin]-8′-yl)-2-(2-(1-methylpiperidin-2-yl)ethoxy)pyridin-3-yl)cyclopropanesulfonamide]			1 to 100 nM	1 to 100 nM
CN(C)CCCOc1ccc(-c2ccc3ncc4c(c3c2)C2(CC2)C(=O)N4C)cn1 [Example 1, 8′-(6-(3-(Dimethylamino)propoxy)pyridin-3-yl)-3′-methylspiro [cyclopropane-1,1′-pyrrolo[2,3-c]quinolin]-2′(3′-H)-one]			1 to 100 nM	1 to 100 nM
CN(C)CCCOc1ncc(-c2ccc3ncc4c(c3c2)C2(CCC2)C(=O)N4C)cc1NS(=O)(=O)c1ccccc1 [Example 5, N-(2-(3-(Dimethylamino)propoxy)-5-(3′-methyl-2′-oxo-2′,3′-dihydrospiro [cyclobutane-1,1′-pyrrolo [2,3-c]quinolin]-8′-yl)pyridin-3-yl)benzenesulfonamide]			< 0.5 nM	1 to 100 nM
CC1CN(S(=O)(=O)Nc2cc(-c3ccc4ncc5c(c4c3)C3(CCC3)C(=O)N5C)cnc2OCCCN(C)C)CC(C)O1 (stereo not shown) [Example 184, N-(2-(3-(Dimethylamino)propoxy)-5-(3′-methyl-2′-oxo-2′,3′-dihydrospiro[cyclobutane-1,1′-pyrrolo[2,3-c]quinolin]-8′-yl)pyridin-3-yl)-2,6-dimethylmorpholine-4-sulfonamide]			1 to 100 nM	1 to 100 nM
COCCS(=O)(=O)Nc1cc(-c2ccc3ncc4c(c3c2)C2(CC2)C(=O)N4C)cnc1OCCCN(C)C [Example 83, N-(2-(3-(Dimethylamino)propoxy)-5-(3′-methyl-2′-oxo-2′,3′-dihydrospiro [cyclopropane-1,1′-pyrrolo[2,3-c]quinolin]-8′-yl)pyridin-3-yl)-2-methoxyethane-1-sulfonamide]			1 to 100 nM	< 0.5 nM
CN(C)CCCOc1ncc(-c2ccc3ncc4c(c3c2)C2(CC2)C(=O)N4C)cc1NS(=O)(=O)c1ccn(C)n1 [Example 112, N-(2-(3-(Dimethylamino)propoxy)-5-(3′-methyl-2′-oxo-2′,3′-dihydrospiro[cyclopropane-1,1′-pyrrolo[2,3-c]quinolin]-8′-yl)pyridin-3-yl)-1-methyl-1H-pyrazole-3-sulfonamide]			< 0.5 nM	1 to 100 nM
CN(C)CCCOc1ncc(-c2ccc3ncc4c(c3c2)C2(CCC2)C(=O)N4C)cc1NS(=O)(=O)c1ccc(S(F)(F)(F)(F)F)cc1 [Example 134, N-(2-(3-(Dimethylamino)propoxy)-5-(3′-methyl-2′-oxo-2′,3′-dihydrospiro[cyclobulane-1,1′-pyrrolo[2,3-c]quinolin]-8′-yl)pyridin-3-yl)-4-(pentafluoro-16-sulfaneyl) benzenesulfonamide]			1 to 100 nM	1 to 100 nM
CN1C(=O)C2(CC2)c2c1cnc1ccc(-c3cnc(Cl)c(NS(=O)(=O)c4ccccc4)c3)cc21 [Example 15, N-(2-Chloro-5-(3′-methyl-2′-oxo-2′,3′-dihydrospiro[cyclopropane-1,1′-pyrrolo[2,3-c]quinolin]-8′-yl)pyridin-3-yl)benzenesulfonamide]			< 0.5 nM	1 to 100 nM
CN(C)CCCOc1ncc(-c2ccc3ncc4c(c3c2)C2(CC2)C(=O)N4C)cc1NS(=O)(=O)C1CC1 [Example 29, N-(2-(3-(Dimethylamino)propoxy)-5-(3′-methyl-2′-oxo-2′,3′-dibydrospiro [cyclopropane-1,1′-pyrrolo[2,3-c]quinolin]-8′-yl)pyridin-3-yl) cyclopropanesulfonamide]			1 to 100 nM	1 to 100 nM
CN(C)CCCOc1ncc(-c2ccc3ncc4c(c3c2)C2(CC2)C(=O)N4CC2COC2)cc1NS(=O)(=O)c1ccccc1 [Example 37, N-(2-(3-(Dimethylamino)propoxy)-5-(3′-(oxetan-3-ylmethyl)-2′-oxo-2′-3′-dihydrospiro [cyclopropane-1,1′-pyrrolo[2,3-c]quinolin]-8′-yl)pyridin-3-yl)benzenesulfonamide]			1 to 100 nM	1 to 100 nM
CN1C(=O)C2(CCC2)c2c1cnc1ccc(-c3cnc(OCCCN4CCCCC4)c(NS(=O)(=O)c4cncs4)c3)cc21 [Example 199, N-(5-(3′-Methyl-2′-oxo-2′,3′-dihydrospiro[cyclobutane-1,1′-pyrrolo[2,3-c]quinolin]-8′-yl)-2-(3-(piperidin-1-yl)propoxy)pyridin-3-yl)thiazole-5-sulfonamide hydrochloride]			< 0.5 nM	1 to 100 nM

Results, then the compound that gave them:

IC50 (DNA-PK; 20 μM ATP)	IC50 (ATM; [1])	IC50 (DNA-PK; ATP 20 μM)	IC50 (ATM; [2])	SMILES
1 to 100 nM	1 to 100 nM			CN(C)CCCOc1ncc(-c2ccc3ncc4c(c3c2)C2(CC(F)(F)C2)C(=O)N4C)cc1NS(C)(=O)=O [Example 554, N-(5-(3,3-Difluoro-3′-methyl-2′-oxo-2′,3′-dihydrospiro[cyclobutane-1,1′-pyrrolo[2,3-c]quinolin]-8′-yl)-2-(3-(dimethylamino)propoxy)pyridin-3-yl)methanesulfonamide]
0.5 to 1 nM	1 to 100 nM			CC(C)NCCOc1ncc(-c2cc3c4c(cnc3cc2F)N(C)C(=O)C42CN(c3ccc(C(C)C)cc3)C2)cc1NS(C)(=O)=O [Example 530, N-(5-(7′-Fluoro-1-(4-isopropylphenyl)-3 methyl-2′-oxo-2′,3′-dihydrospiro [azetidine-3,1′-pyrrolo[2,3-c]quinolin]-8′-yl)-2-(2-(isopropylamino)ethoxy)pyridin-3-yl)methanesulfonamide]
1 to 100 nM	1 to 100 nM			CC(C)N1CC2(C1)C(=O)N(C)c1cnc3cc(F)c(-c4cnc(N5CCC(N6CCCCC6)CC5)c(NS(C)(=O)=O)c4)cc3c12 [Example 486]
		1 to 100 nM	1 to 100 nM	CCS(=O)(=O)Nc1cc(-c2ccc3ncc4c(c3c2)C2(CCC2)C(=O)N4C)cnc1OCCCN(C)C [Example 238, N-(2-(3-(Dimethylamino)propoxy)-5-(3′-methyl-2′-oxo-2′,3′-dihydrospiro [cyclobutane-1,1′-pyrrolo[2,3-c]quinolin]-8′-yl)pyridin-3-yl) ethanesulfonamide]
		< 0.5 nM	0.5 to 1 nM	Cc1ccc(S(=O)(=O)Nc2cc(-c3ccc4ncc5c(c4c3F)C3(CC3)C(=O)N5C)cnc2OCCCN(C)C)cc1 [Example 215, N-(2-(3-(Dimethylamino)propoxy)-5-(9′-fluoro-3′-methyl-2′-oxo-2′,3′-dihydrospiro[cyclopropane-1,1′-pyrrolo[2,3-c]quinolin]-8′-yl)pyridin-3-yl)-4-methylbenzenesulfonamide]
1 to 100 nM	1 to 100 nM			CC(C)NCCOc1ncc(-c2cc3c(cc2F)ncc2c3[C@]3(C[C@H](OC(C)C)C3)C(=O)N2C)cc1NS(C)(=O)=O [Example 395, cis-N-(5-(7′-Fluoro-3-isopropoxy-3′-methyl-2′-oxo-2′,3′-dihydrospiro[cyclobutane-1,1′-pyrrolo[2,3-c]quinolin]-8′-yl)-2-(2-(isopropylamino)ethoxy)pyridin-3-yl)methanesulfonamide]
1 to 100 nM	1 to 100 nM			COc1ccc([C@H]2C[C@]3(C2)C(=O)N(C)c2cnc4cc(F)c(-c5cnc(OCCNC(C)C)c(NS(C)(=O)=O)c5)cc4c23)cc1 [Example 420, cis-N-(5-(7′-Fluoro-3-(4-methoxyphenyl)-3-methyl-2′-oxo-2′,3′-dihydrospiro[cyclobulane-1,1′-pyrrolo[2,3-c]quinolin]-8′-yl)-2-(2-(isopropylamino)ethoxy)pyridin-3-yl)methanesulfonamide hydrochloride]
1 to 100 nM	1 to 100 nM			CC(C)NCCOc1ncc(-c2cc3c(cc2F)ncc2c3[C@]3(C[C@H](COC(C)C)C3)C(=O)N2C)cc1NS(=O)(=O)C(C)C [Example 412, cis-N-(5-(7′-Fluoro-3-(isopropoxymethyl)-3′-methyl-2′-oxo-2′,3′-dihydrospiro[cyclobutane-1,1′-pyrrolo[2,3-c]quinolin]-8′-yl)-2-(2-(isopropylamino)ethoxy)pyridin-3-yl)propane-2-sulfonamide]
		< 0.5 nM	1 to 100 nM	CN1C(=O)C2(CCC2)c2c1cnc1ccc(-c3cnc(OCCCN4CCCCC4)c(NS(=O)(=O)C(F)F)c3)cc21 [Example 302, 1,1-Difluoro-N-(5-(3-methyl-2′-oxo-2′,3′-dihydrospiro[cyclobutane-1,1′-pyrrolo[2,3-c]quinolin]-8-yl)-2-(3-(piperidin-1-yl)propoxy)pyridin-3-yl)methanesulfonamide]
		0.5 to 1 nM	1 to 100 nM	CN1C(=O)C2(CCC2)c2c1cnc1ccc(-c3cnc(N4CCC(N5CCCCC5)CC4)c(NS(=O)(=O)c4ccccc4F)c3)cc21 [Example 203]
		< 0.5 nM	1 to 100 nM	CNCCOc1ncc(-c2ccc3ncc4c(c3c2)C2(CCC2)C(=O)N4C)cc1NS(=O)(=O)c1ccccc1 [Example 250, N-(5-(3′-Methyl-2′-oxo-2′,3′-dihydrospiro[cyclobutane-1,1′-pyrrolo[2,3-c]quinolin]-8′-yl)-2-(2-(methylamino)ethoxy)pyridin-3-yl) benzenesulfonamide]
< 0.5 nM	1 to 100 nM			CC(C)NCCOc1ncc(-c2cc3c4c(cnc3cc2F)N(C)C(=O)C42CN(c3ccccc3F)C2)cc1NS(C)(=O)=O [Example 540, N-(5-(7′-Fluoro-1-(2-fluorophenyl)-3′-methyl-2′-oxo-2′,3′-dihydrospiro [azetidine-3,1′-pyrrolo[2,3-c]quinolin]-8′-yl)-2-(2-(isopropylamino)ethoxy)pyridin-3-yl)methanesulfonamide]

— US12187742B2 (XRAD Therapeutics, Inc., priority 2018, dated 2025)
